For data set [1], the target named is T1, hα7-wt nAChR (Homo sapiens, UniProt P36544).
T1 construct: expressed in transfected cells
The data set can be described thus: Ca2+ flux imaging (FLIPR) (Protocol A), PAM activity with choline as agonist. To be noted: for EC50: "<5" = no top plateau at maximal concentration; for Emax: read-out: % efficacy. In kind it is cell-based. From the text: Stable expression in mammalian cells in general and rat GH4C1 cells in particular, of cDNA clones encoding the human α7 wild-type sequence (hα7-wt nAChR) and in which the coding region is placed downstream of a promoter results in the appearance of functional α7 nAChRs on the surface of the mammalian cells. This technique has provided a powerful means of assessing the function of α7 wild-type protein. Given the fact that the cation permeability of the α7 nicotinic receptor preferentially favours calcium, fluorescent imaging of Ca^2+ flux through the hα7-wt nAChR stably expressed in the GH4C1 cell line was used as a first means of assaying modulator activity of the compounds of the present invention.
• Hanks buffered saline solution (HBSS, Invitrogen, Belgium), supplemented with 10 mM HEPES (Invitrogen, Belgium), CaCl2 to a final concentration of 5 mM, 0.1% Bovine serum albumin (Sigma-Aldrich NV, Belgium), 2.5 mM probenecid (Sigma-Aldrich NV, Belgium). b) Calcium-Sensitive Dye—Fluo-4AM • Fluo-4AM (Molecular Probes, USA) was dissolved in DMSO containing 10% Pluronic acid (Molecular Probes, USA) to give a stock solution which was aliquoted and stored at −20° C. until later use. On the day of the experiment Fluo-4AM stock was defrosted and diluted in DMEM/F12 (Invitrogen, Belgium) to give a final concentration of 4 μM. c) 96-Well Plates • BD Biocoat poly-D-lysine 96-well black/clear plates (BD Biosciences, Belgium) d) Calcium Flux Measurement • A Fluorimetric Imaging Plate Reader (FLIPR, Molecular Devices Corporation, Sunnyvale, USA) was used to measure intracellular free-calcium flux signals Method
Monolayers of hα7-wt nAChR-expressing cells were grown in multi-well plates, in particular black-sided, transparent bottomed 96 well plates coated with poly-D-lysine for 24 hours prior to loading with a fluorescent calcium indicator, in a particular embodiment loading with fluo-3 or fluo-4AM for up to 90 minutes, in an even more particular embodiment loading with fluo-4AM for up to 90 minutes, and in a preferred embodiment loading with fluo-4AM for up to 60 minutes.
PAM activity was detected in real time by applying the compounds to be tested to the loaded cells along with a α7 nicotinic receptor agonist during constant monitoring of cellular fluorescence in a FLIPR. Compounds giving peak fluorescent responses greater than the response due to agonist alone, were considered to be α7 nAChR PAM's. In a particular embodiment, the α7 nicotinic receptor agonist was choline, a more particular embodiment choline applied at a sub-maximal concentration of 100 μM. In a further setting of the present invention the compounds to be tested were applied prior to the α7 nicotinic receptor agonist, in a particular embodiment up to 20 minutes prior to the agonist, a more particular embodiment up to 10 minutes prior to the agonist, and an even more particular embodiment 10 minutes prior to the agonist.
A control response to choline was calculated on each plate from the difference in peak in fluorescence in wells receiving either choline or assay buffer alone. Compounds of the present invention were tested at a concentration range from 0.1 μM to 50 μM. Compounds were considered to have an interesting activity when their efficacy was at least 500% when tested at the concentration where they have a maximal effect, typically between 0.1 μM and 50 μM (the efficacy of 100 μM choline was defined as 100% in the absence of a PAM). The compounds also have a potentiating effect on the response to choline when measured by whole-cell patch clamp electrophysiology in GH4C1 cells stably over-expressing the human wild-type α7 receptor.

For data set [2], the target named is T1, hα7-wt nAChR. In words: Ca2+ flux imaging (FDSS) (Protocol B), PAM activity with choline as agonist. In kind it is cell-based. To be noted: for EC50: "<5" = no top plateau at maximal concentration; for Emax: read-out: % efficacy. The procedure, abridged:
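Cells stably expressing human wild-type α7 nAChR, loaded with fluo-4AM (2 μM final) up to 120 min in HBSS/10 mM HEPES/5 mM CaCl2/0.1% BSA with 5 mM probenecid. Compounds (0.01–30 μM) added up to 10 min before 100 μM choline; peak fluorescence read on FDSS, potentiation expressed relative to choline-alone response (100%).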

T1 sequence (P36544 23-502): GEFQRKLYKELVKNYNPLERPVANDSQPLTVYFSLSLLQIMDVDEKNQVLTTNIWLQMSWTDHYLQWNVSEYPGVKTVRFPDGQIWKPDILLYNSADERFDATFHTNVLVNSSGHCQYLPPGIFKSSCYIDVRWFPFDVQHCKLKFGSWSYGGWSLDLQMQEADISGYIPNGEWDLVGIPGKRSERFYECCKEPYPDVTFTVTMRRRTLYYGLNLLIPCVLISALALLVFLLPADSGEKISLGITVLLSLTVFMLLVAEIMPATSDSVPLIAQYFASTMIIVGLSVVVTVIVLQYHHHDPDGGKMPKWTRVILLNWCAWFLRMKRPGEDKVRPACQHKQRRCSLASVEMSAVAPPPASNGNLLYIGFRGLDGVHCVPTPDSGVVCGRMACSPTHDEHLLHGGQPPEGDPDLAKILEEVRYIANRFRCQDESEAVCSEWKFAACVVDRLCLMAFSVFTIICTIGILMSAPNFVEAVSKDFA

Consider `OCCn1nc(Nc2cccc(C(F)(F)F)c2)nc1-c1ccc2c(c1)OCCO2` [Compound 3], for which the melting point was 188.3 to 190.3 °C. The EC50 on hα7-wt nAChR [1] is 3.16 µM.

Consider `CN(C)C(=O)CCn1nc(Nc2cccc(C(F)(F)F)c2)nc1-c1ccc2c(c1)OCCO2` [Compound 6], for which the melting point fell in the range of 195.7 to 196.6 °C. For the same compound, the EC50 at hα7-wt nAChR [1] was 0.158 µM.

Take `OCCn1nc(Nc2cccc(C(F)(F)F)c2)nc1-c1ccnc(Cl)c1` [Compound 7]: the EC50 on hα7-wt nAChR [1] is 6.31 µM.

Regarding `CNC(=O)CCn1nc(Nc2cccc(C(F)(F)F)c2)nc1-c1ccncc1` [Compound 11], on hα7-wt nAChR [1], the EC50 is more than 10 µM and the Emax was 938%.

Consider `CNC(=O)Cn1nc(Nc2cccc(C(F)(F)F)c2)nc1-c1ccc(Cl)cc1Cl` [Compound 13], for which the melting point was 179.9 to 182.1 °C. In addition, the EC50 on hα7-wt nAChR [1] was 2 µM.

For the compound `OCCn1nc(Nc2cccc(C(F)(F)F)c2)nc1-c1cccnc1` [Compound 16], the melting point was 158.2 to 159 °C. In addition, on hα7-wt nAChR [1], the EC50 is 7.94 µM and the Emax is 583%.

Compound `Cn1nc(Nc2ccccc2)nc1-c1ccc(Cl)cc1Cl` [Compound 18] returned a melting point of 193 to 194 °C. Also, the EC50 on hα7-wt nAChR [1] is more than 10 µM.

For the compound `NC(=O)Cn1nc(Nc2cccc(C(F)(F)F)c2)nc1-c1ccc(Cl)cc1Cl` [Compound 20], the melting point is 203.6 to 206.4 °C. Further, on hα7-wt nAChR [1], the EC50 is more than 10 µM.

Consider `CN(C)C(=O)Cn1nc(Nc2cccc(C(F)(F)F)c2)nc1-c1ccc2c(c1)OCCO2` [Compound 23], for which, on hα7-wt nAChR [1], the EC50 was more than 10 µM.

Turning to `CC(=O)NCCCn1nc(Nc2ccc(F)c(C(F)(F)F)c2)nc1-c1ccnc(C)c1` [Compound 27], the melting point was determined as 171.2 °C. Further, the EC50 on hα7-wt nAChR [1] was more than 10 µM.

Compound `OCCn1nc(Nc2cccc(C(F)(F)F)c2)nc1-c1ccnc(N2CCOCC2)c1` [Compound 38] came in with a melting point of 167.4 °C. Besides, on hα7-wt nAChR [1], the EC50 was 3.98 µM.

`COCCn1nc(Nc2cccc(C(F)(F)F)c2)nc1-c1ccncc1` [Compound 52] came in with a melting point of 147.2 °C. For the same compound, at hα7-wt nAChR [1], the EC50 is 7.94 µM and the Emax was found to be 641%.

With `OCCn1nc(Nc2cccc(C(F)(F)F)c2)nc1-c1cnc2c(c1)OCC2` [Compound 78], the melting point turned out to be 173.1 °C. Further, the EC50 at hα7-wt nAChR [1] is more than 10 µM.

In turn, `OCCn1nc(Nc2cccc(C(F)(F)F)c2)nc1-c1cnc2ccoc2c1` [Compound 79] yielded a melting point of 158.8 °C. In addition, the EC50 on hα7-wt nAChR [1] is more than 10 µM.

Compound `OCCn1nc(Nc2cccc(C(F)(F)F)c2)nc1-c1cnc2ccccc2c1` [Compound 80] showed a melting point of 182 °C. For the same compound, on hα7-wt nAChR [1], the EC50 is 3.16 µM.

Consider `CCOC(=O)Cn1nc(Nc2cccc(C(F)(F)F)c2)nc1-c1ccc2c(c1)OCO2` [Compound 81], for which the melting point stood at 149.2 °C. Moreover, on hα7-wt nAChR [1], the EC50 was more than 10 µM.

In the case of `C[C@@H](O)Cn1nc(Nc2ccc(F)c(C(F)(F)F)c2)nc1-c1ccc(C2CC2)nc1` [Compound 100], on hα7-wt nAChR [1], the EC50 is 3.98 µM.

Turning to `CN(C)C(=O)CCn1nc(N(C)c2ccc(F)c(C(F)(F)F)c2)nc1-c1ccc2c(c1)OCCO2` [Compound 135], the melting point lay in the range of 113.1 to 115.1 °C. The EC50 on hα7-wt nAChR [1] is 3.16 µM.

`CC(O)Cn1nc(Nc2cccc(OC(F)(F)F)c2)nc1-c1ccc(C2CC2)nc1` (stereo not drawn) [Compound 150]: the melting point amounted to 125.5 °C. In addition, the EC50 at hα7-wt nAChR [1] is 3.98 µM.

With `FCCn1nc(Nc2cccc(OC(F)(F)F)c2)nc1-c1ccnc(C2CC2)c1` [Compound 152], the EC50 at hα7-wt nAChR [1] was 3.98 µM.

Regarding `C[C@H](O)Cn1nc(Nc2ccc(F)c(F)c2)nc1-c1ccnc(C2CC2)c1` [Compound 175], the melting point was 131.4 °C. At hα7-wt nAChR [1], the EC50 was 2.51 µM and the Emax was determined as 904%.

In turn, `CNc1ccc(-c2nc(Nc3cc(F)c(F)cc3F)nn2CCC(=O)N(C)C)cn1` [Compound 189] displayed a melting point of 166.7 °C. Further, on hα7-wt nAChR [2], the EC50 is 0.794 µM.

As for `CCNc1ccc(-c2nc(Nc3cc(F)c(F)cc3F)nn2CCC(=O)N(C)C)cn1` [Compound 190], the melting point came out at 134.2 °C. At hα7-wt nAChR [2], the EC50 was 0.398 µM.

As to `CN(C)C(=O)CCn1nc(Nc2ccc(F)c(F)c2)nc1-c1ccc(C(F)(F)F)nc1` [Compound 191], the melting point worked out at 194.4 °C. The EC50 on hα7-wt nAChR [2] was 1.26 µM.

Turning to `Cc1cc(Nc2nc(-c3ccnc(Cl)c3)n(CCC(=O)N(C)C)n2)ccc1F` [Compound 192], the melting point was determined as 149 °C. Besides, the half-maximal effective concentration (EC50) on hα7-wt nAChR [2] is 0.631 µM.

For the compound `CN(C)C(=O)CCn1nc(Nc2cc(F)c(F)cc2F)nc1-c1ccc(NC2CC2)nc1` [Compound 193], the melting point turned out to be 158.2 °C. Moreover, the EC50 on hα7-wt nAChR [2] is 0.794 µM.

Compound `CN(C)C(=O)CCn1nc(Nc2cccc(F)c2)nc1-c1ccc2c(c1)OCCO2` [Compound 194] showed a melting point of 114.3 to 116.3 °C. Besides, the half-maximal effective concentration (EC50) at hα7-wt nAChR [2] is 0.316 µM.

`CCNc1cc(-c2nc(Nc3ccc4c(c3)OC(F)(F)O4)nn2CC(C)O)ccn1` (stereo not drawn) [Compound 199] came in with a melting point of 167.9 °C. The EC50 on hα7-wt nAChR [2] is 2.51 µM.

In turn, `CNC(=O)Cn1nc(Nc2ccc3c(c2)OC(F)(F)O3)nc1-c1ccnc(C)c1` [Compound 200] yielded a melting point of 227 °C. The EC50 at hα7-wt nAChR [2] was 2 µM.

In turn, `CCNC(=O)Cn1nc(Nc2ccc3c(c2)OC(F)(F)O3)nc1-c1ccnc(C)c1F` [Compound 201] came in with a melting point of 223.5 °C. For the same compound, at hα7-wt nAChR [2], the EC50 was 1 µM.

As for `CNC(=O)Cn1nc(Nc2ccc3c(c2)OC(F)(F)O3)nc1-c1cc(C)ncc1Cl` [Compound 202], the melting point stood at 243 °C. Besides, the EC50 on hα7-wt nAChR [2] was 3.16 µM.

For the compound `CNC(=O)Cn1nc(Nc2ccc3c(c2)OC(F)(F)O3)nc1-c1cc(Cl)ncc1Cl` [Compound 203], the melting point turned out to be 231.3 °C. Moreover, the EC50 on hα7-wt nAChR [2] is 3.16 µM.

For the compound `CCNC(=O)Cn1nc(Nc2ccc3c(c2)OC(F)(F)O3)nc1-c1ccnc2c1CCC2` [Compound 204], the melting point amounted to 260.1 °C. The EC50 on hα7-wt nAChR [2] is 0.631 µM.

`Cc1cc(-c2nc(Nc3ccc4c(c3)OC(F)(F)O4)nn2CC(=O)NC2CCC2)ccn1` [Compound 205] had a melting point of 224.8 °C. On hα7-wt nAChR [2], the EC50 was 0.794 µM.

Consider `Cc1cc(-c2nc(Nc3ccc4c(c3)OC(F)(F)O4)nn2CC(=O)NC2CCCC2)ccn1` [Compound 206], for which the melting point stood at 229.1 °C. Further, the EC50 at hα7-wt nAChR [2] was 0.631 µM.

As for `Cc1cc(-c2nc(Nc3ccc4c(c3)OC(F)(F)O4)nn2CC(=O)NC2CCCC2O)ccn1` (stereo not drawn) [Compound 207], the melting point was determined as 219.7 °C. In addition, on hα7-wt nAChR [2], the EC50 was more than 10 µM and the Emax is 811%.

In turn, `Cc1cc(-c2nc(Nc3ccc4c(c3)OC(F)(F)O4)nn2CC(=O)NC2CCOC2)ccn1` (stereo not drawn) [Compound 208] showed a melting point of 253.8 °C. Moreover, on hα7-wt nAChR [2], the EC50 was 5.01 µM and the Emax amounted to 909%.

Compound `Cc1cc(-c2nc(Nc3ccc4c(c3)OC(F)(F)O4)nn2CCC(=O)N(C)C)cc(C)n1` [Compound 209] yielded a melting point of 182.2 °C. Besides, the EC50 on hα7-wt nAChR [2] was 0.398 µM.

As to `CN(C)C(=O)CCn1nc(Nc2ccc3c(c2)OC(F)(F)O3)nc1-c1ccncc1F` [Compound 210], the melting point was 201.5 °C. Moreover, on hα7-wt nAChR [2], the EC50 was 0.316 µM.

Compound `CNC(=O)Cn1nc(Nc2ccnc(C(F)(F)F)c2)nc1-c1ccc2c(c1)OCCO2` [Compound 212] came in with a melting point of 214.2 to 223.5 °C. Moreover, the EC50 at hα7-wt nAChR [2] is 1.26 µM.
